Results published in US8293803B2, “Retinoid compounds and their use” (Reinnervate Limited, priority 2006, dated 2012).

Columns and labels:
[1] = tested on: neuroprogenitor cells derived from the adult rat hippocampus; experiment: Differentiation of adult neuroprogenitor cells; type: cell-based; settings: adult rat hippocampal neuroprogenitor cells; β-tubulin-III staining
Experimental: (§1) The biological activity of compounds 6, 10, 11, 12 and 13 were determined by exposing these molecules at various concentrations to different mammalian stem cell systems, namely (1) human pluripotent stem cells; and (2) rat adult neuroprogenitor cells.
The biological activity of the synthetic retinoid EC23 (10a(i)) was also evaluated by exposing it to neuroprogenitor cells derived from the adult rat hippocampus. […] Immunocytochemical staining for the marker β-tubulin-III was used to confirm neuronal identity (data not shown).

[2] = Stability at room temperature for 1 week (HNMR); type: physicochemical
Experimental: (§2) In order to test the sensitivity of the natural retinoids, 10 mM samples in either DMSO or deuterochloroform were exposed to either 37° C., laboratory light (approximately 500 lux), white light (approximately 1250 lux) or UV light. Upon isomerisation HNMR spectra of samples were taken and compared to HNMR spectra of pure samples. The % peak intensities from the HNMR spectra were used to quantify levels of the different retinoic acids and any other compounds that may be present.
Samples of ATRA and 13CRA, were left at room temperature for 1 week. The degraded solution of 13CRA contained around 78% 13CRA. […] All of the above experiments highlight retinoic acids inherent instability, not only in light, but also at 37° C. and even at room temperature.

[3] = tested on: human pluripotent stem cells; experiment: Differentiation of human pluripotent stem cells, morphology and immunocytochemistry / immunofluorescent microscopy; type: cell-based; settings: for formation of neurons: confirmed by immunocytochemistry
Experimental: as §1
Tissue development by human pluripotent stem cells closely resembles that which occurs during normal embryogenesis in utero and this cell system is a proven and accepted model of cell differentiation (Przyborski et al, Stem Cells Dev., 2004, 13:400-408). […]

[4] = Stability in D6-DMSO, 3 days dark under air versus fluorescent light (1H NMR); type: physicochemical
Description: FIG. 6 ^1H NMR (500 MHz) spectrum (d 5.40-7.80) of ATRA in D6-DMSO in a glass NMR tube after 3 days in the dark under air (top), versus 3 days exposure to fluorescent light (bottom).
FIG. 7 ^1H NMR (500 MHz) spectrum (d 7.20-8.10) of EC23 (10a(i) (R′═H)) in D6-DMSO in a glass NMR tube after 3 days in the dark under air (top), versus 3 days exposure to fluorescent light (bottom).
In order to study the relative stability of certain synthetic retinoids versus the natural systems, solutions of each were exposed to different environmental conditions and then studied by NMR.

[5] = Photoisomerisation under UV light (HNMR); type: physicochemical; settings: over 12 hours
Experimental: as §2
(§3) The sensitivity of retinoic acids to light was tested by placing samples of ATRA, 9CRA and 13CRA in one of three lighting conditions for varying lengths of time. Samples were exposed to either normal laboratory light conditions, white light or UV light. HNMR spectra were then compared to those of pure samples.
FIGS. 4 and 5 show the relative ratios of the natural retinoic acids found in samples of ATRA and 13CRA isomerised in UV light for 1 hour and 12 hours.
Samples of synthetic retinoids 12(ii), 12(i) and 13 were exposed to 1 hour of laboratory light, 1 hour of white light and 1 hour of UV light. HNMR spectra from samples exposed to lab light and white light were identical to those of pure compounds. […] UV light is emitted at a frequency likely to excite the conjugated double bond region of these synthetic retinoids, resulting in the slight degradation observed. […]

[6] = Photoisomerisation under white light (HNMR); type: physicochemical
Experimental: as §2, §3
Samples of synthetic retinoids 12(ii), 12(i) and 13 were exposed to 1 hour of laboratory light, 1 hour of white light and 1 hour of UV light. HNMR spectra from samples exposed to lab light and white light were identical to those of pure compounds. […] UV light is emitted at a frequency likely to excite the conjugated double bond region of these synthetic retinoids, resulting in the slight degradation observed. 12(ii) and 12(i) were stable under laboratory light and white light. 13 was stable when exposed to all forms of light.

[7] = Photoisomerisation under laboratory light (HNMR); type: physicochemical; settings: laboratory light (approx. 500 lux), 1 hour and 24 hours
Experimental: as §2, §3
The relative ratios of the natural retinoic acid isomers found in samples of ATRA and 13CRA isomerised in lab light for 1 hour and 24 hours can be seen in FIGS. 1 and 2. The new peaks in HNMR spectra increased in size, and so levels of isomerisation products increased over 24 hours but not to any great extent.
Samples of synthetic retinoids 12(ii), 12(i) and 13 were exposed to 1 hour of laboratory light, 1 hour of white light and 1 hour of UV light. HNMR spectra from samples exposed to lab light and white light were identical to those of pure compounds. […]

[8] = Temperature sensitivity of retinoic acids at 37 °C (HNMR); type: physicochemical; settings: 37° C. water bath, HNMR peak intensities
Experimental: as §2
Temperature sensitivity was tested by placing solutions of retinoic acids in a 37° C. water bath for varying time lengths. After 1 hour at 37° C. approximate levels of the initial retinoic acid were 85% for a 13CRA sample and 100% for an ATRA sample. This decreased to 73% for a 13CRA sample and 86% for an ATRA sample after 24 hours.

[9] = ATRA in ethanol, white light, 30 minutes; cited from earlier work
TERA2.cl.SP12 cells = experiment: Proliferation and cytotoxicity in TERA2.cl.SP12 cultures; type: cell-based, human
stem cells = experiment: Modulation of cell differentiation (summary statement); type: cell-based; settings: conditions not given
Experimental: (§4) The application of this technology to systems both with and without a methyl group (e.g. in 6a versus 6b), is important because it allows control of relative rotational orientation of the aryl and vinyl groups which has important implications for the control of conformation as a design principle for developing receptor-selective retinoid analogues.
as §1

[10] = Stability (summary statement); type: physicochemical; settings: conditions not given
Description: as §4

[11] = tested on: human pluripotent TERA2.cl.SP12 embryonal carcinoma stem cells; experiment: Flow cytometry of cell surface antigen expression on human pluripotent stem cells; type: cell-based; settings: 14 day test period; comparable to non-isomerised ATRA
Experimental: FIG. 8 Flow cytometric analysis of cell surface antigen expression for markers of stem cells (ssea-3, tra-1-60) and differentiated derivatives (vinis-53, a2b5) when cultures of human pluripotent embryonal carcinoma stem cells (TERA2.SP12) exposed to either 10 μM ATRA or 10 μM EC23 (10a(i) (R′═H)).
FIG. 9 Flow cytometric analysis of cell surface antigen expression on human pluripotent TERA2.cl.SP12 embryonal carcinoma stem cells (undiff) and their differentiated derivatives after 7 days exposure to either ATRA; 3Me-CEBX (12); 3Me-EC19 (10b(ii) R′═H); 3Me-EC23 (10b(i) (R′═H)); 4Me-TTN (6b(i)(R′═H)); all used at 1 μM. DMSO was used as a vehicle control.
as §1
Tissue development by human pluripotent stem cells closely resembles that which occurs during normal embryogenesis in utero and this cell system is a proven and accepted model of cell differentiation (Przyborski et al, Stem Cells Dev., 2004, 13:400-408).
The expression of cell surface antigens that are known to change as these stem cells commit to differentiate, was assessed by flow cytometry.
Flow cytometry was also used to assay for the effect(s) of compounds 6, 10 and (FIGS. 8 and 9).

[12] = 10 μM, 21 days, immunofluorescent microscopy
[13] = 3 days exposure to fluorescent light, DMSO, NMR
[14] = 1 hour, 10 mM in DMSO or deuterochloroform

For `CC1=C(/C=C/C(C)=C/C=C/C(C)=C/C(=O)O)C(C)(C)CCC1` [ATRA, All-trans-retinoic acid], the differentiation into neurons [1] was “primarily form neurons”, the “content of the initial retinoic acid in the solution” value [2] was 94% and the “epithelial plaques (cytokeratin-8)” value [3, 12] was “numerous epithelial plaques”. The “formation of neurons / neuronal differentiation” value [3, 12] was “induced the formation of neurons”, the amount remaining [4, 13] was 37% and the isomerisation and degradation [4, 13] was 63%. For the same compound, the “stability by NMR” value ([4]; 3 days in the dark in air in DMSO) was “reasonably stable”, the “degradation in UV light” value [5] was “rapidly degraded” and the “level of ATRA” value ([6]; white light (approx. 1250 lux), 1 hour) was 76%. For the same compound, the “level of ATRA” value ([6]; white light, 6 hours) was 43%, the “level of ATRA” value ([6]; white light, 24 hours) was 21% and the “relative stability in laboratory light” value [7] was “marginally more stable than 13CRA”. For the same compound, the “approximate level of the initial retinoic acid” value (“approximate level” for short) [8, 14] was ~100%, the “approximate level” value ([8]; 24 hours) was ~86% and the “relative concentration of 9, 13-dicis RA in the isomerised ATRA sample” value [9] was 5%. For the same compound, the “relative concentration of 9CRA in the isomerised ATRA sample” value [9] was 10%, the “relative concentration of 11CRA in the isomerised ATRA sample” value [9] was 10% and the “relative concentration of 13CRA in the isomerised ATRA sample” value [9] was 30%. For the same compound, the “relative concentration of ATRA in the isomerised ATRA sample” value [9] was 25% and the “relative concentration of an unidentified compound in the isomerised ATRA sample” value [9] was 20%.
In the case of `CC1(C)CCC(C)(C)c2cc(C#Cc3cccc(C(=O)O)c3)ccc21` [10a(ii)], the “cells immuno-positive for Tuj-1 and NF200” value [3, 12] is reported as “only a few cells immuno-positive”, the “epithelial plaques (cytokeratin-8)” value [3, 12] is reported as “large numbers of cytokertin-8 positive epithelial plaques” and the “formation of neurons / neuronal differentiation” value [3, 12] is reported as “formation of very few neurons”. For the same compound, the nestin expression [3, 12] was “nestin staining reduced”, the “formation of epithelial cells” value ([3]; morphology) was “formation of epithelial cells” and the formation of neurons ([3]; morphology) was “Neurons were not identified”.
With `CC1(C)CCC(C)(C)c2cc(C#Cc3cccc(C(=O)NO)c3)ccc21` [11a(ii), 3-(5,5,8,8-Tetramethyl-5,6,7,8-tetrahydronaphthalen-2-ylethynyl)benzohydroxamic acid] the “cytotoxicity: time to kill the cells” value (TERA2.cl.SP12 cells; TERA2.cl.SP12 cells, described as potent cytotoxicity) was ≤ 4 days and the “effect on proliferation of the cultures” value (TERA2.cl.SP12 cells; cultures grown in its presence) was “halted proliferation almost instantly”.
For `CC1=C(/C=C/C(C)=C/C=C/C(C)=C\C(=O)O)C(C)(C)CCC1` [Compound 13CRA, 13-cis-retinoic acid], the “content of the initial retinoic acid in the solution” value [2] was “around 78%”, the “degradation in UV light” value [5] was “rapidly degraded” and the “approximate level” value [8, 14] was ~85%. For the same compound, the “approximate level” value ([8]; 24 hours) was ~73%.
With `COC(=O)c1cccc(C=C(C)c2ccc3c(c2)C(C)(C)CCC3(C)C)c1` [Compound 6aii, 3-[2-(5,5,8,8-Tetramethyl-5,6,7,8-tetrahydronaphthalen-2-yl)-propenyl]-benzoic acid methyl ester] the “efficacy in modulating cell differentiation” value (stem cells) was “efficacious in modulating cell differentiation” and the stability [10] was “particularly stable”.
With `CC(=Cc1ccc(C(=O)O)cc1)c1cc2c(cc1C)C(C)(C)CCC2(C)C` [Compound 6bi, 4-[2-(3,5,5,8,8-Pentamethyl-5,6,7,8-tetrahydro-naphthalen-2-yl)propenyl]benzoic acid] the “efficacy in modulating cell differentiation” value (stem cells) was “efficacious in modulating cell differentiation” and the stability [10] was “particularly stable”.
With `CC1(C)CCC(C)(C)c2cc(C#Cc3ccc(C(=O)O)cc3)ccc21` [10a(i), 4-(5,5,8,8-Tetramethyl-5,6,7,8-tetrahydro-naphthalen-2-ylethynyl)benzoic acid] the differentiation into neurons [1] was “differentiate into well-defined neurons”, the “epithelial plaques (cytokeratin-8)” value [3, 12] was “very few, if any, epithelial plaques” and the “formation of neurons / neuronal differentiation” value [3, 12] was “consisting primarily of cells undergoing neuronal differentiation”. The nestin expression [3, 12] was “strong expression for nestin”, the “behaviour compared with natural ATRA” value ([3]; human pluripotent stem cells) was “essentially identical behaviour to natural ATRA” and the formation of neurons ([3]; morphology) was “induced the formation of morphologically identifiable neurons”. For the same compound, the “stability by NMR” value ([4]; 3 days, dark under air and fluorescent light, DMSO (same conditions as ATRA)) was “completely stable”, the “expression of differentiation antigens A2B5 and VINIS-53” value [11] was “marked increases in expression” and the “expression of stem cell markers TRA-1-60 and SSEA-3” value [11] was “suppression”.
